From the NIST ThermoML archive (doi:10.1016/j.jct.2011.10.014)
Numbers after ± are expanded uncertainties.

Conditions: 101.33 kPa, Crystal, Vacuum adiabatic calorimetry

O=C([O-])[O-].[Pb+2] [lead(II) carbonate]
Conditions	molar entropy [J/K/mol]
5 K	0.0215 ± 0.015
10 K	0.2771 ± 0.018
15 K	1.17 ± 0.027
20 K	2.745 ± 0.038
25 K	4.823 ± 0.048
30 K	7.25 ± 0.082
35 K	9.921 ± 0.09
40 K	12.76 ± 0.1
45 K	15.72 ± 0.11
50 K	18.76 ± 0.12
55 K	21.83 ± 0.13
60 K	24.93 ± 0.14
65 K	28.02 ± 0.14
70 K	31.09 ± 0.15
75 K	34.13 ± 0.16
80 K	37.12 ± 0.17
85 K	40.07 ± 0.18
90 K	42.97 ± 0.36
95 K	45.81 ± 0.37
100 K	48.59 ± 0.37
110 K	53.97 ± 0.38
120 K	59.11 ± 0.39
130 K	64.03 ± 0.4
140 K	68.74 ± 0.4
150 K	73.25 ± 0.41
160 K	77.6 ± 0.42
170 K	81.78 ± 0.42
180 K	85.81 ± 0.43
190 K	89.7 ± 0.43
200 K	93.46 ± 0.44
210 K	97.11 ± 0.45
220 K	100.6 ± 0.5
230 K	104.1 ± 0.5
240 K	107.4 ± 0.5
250 K	110.7 ± 0.5
260 K	113.9 ± 0.5
270 K	117 ± 0.5
273.15 K	118 ± 0.5
280 K	120.1 ± 0.5
290 K	123 ± 0.5
298.15 K	125.4 ± 0.7
300 K	126 ± 0.5
310 K	128.9 ± 0.5
320 K	131.7 ± 0.5
